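Tested at 5 concentrations; 48 h exposure; 96-well plates; endpoints linearly interpolated, else capped at highest concentration. At the GI50, growth is halved. The concentration for full growth arrest is given as TGI.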
What was measured:
Assay in all cases: growth of human tumour cells (NCI), 48 h
SK-MEL-5 melanoma = test system: SK-MEL-5 melanoma
U251 CNS = test system: U251 CNS
SR leukemia = test system: SR leukemia
SNB-19 CNS = test system: SNB-19 CNS
TK-10 renal = test system: TK-10 renal
T-47D breast = test system: T-47D breast
K-562 leukemia = test system: K-562 leukemia
SK-MEL-2 melanoma = test system: SK-MEL-2 melanoma
M14 melanoma = test system: M14 melanoma
SK-MEL-28 melanoma = test system: SK-MEL-28 melanoma
BT-549 breast = test system: BT-549 breast
OVCAR-3 ovarian = test system: OVCAR-3 ovarian
KM12 colon = test system: KM12 colon
ACHN renal = test system: ACHN renal
786-0 renal = test system: 786-0 renal
HL-60(TB) leukemia = test system: HL-60(TB) leukemia
SN12C renal = test system: SN12C renal
SNB-75 CNS = test system: SNB-75 CNS
RPMI-8226 leukemia = test system: RPMI-8226 leukemia
OVCAR-5 ovarian = test system: OVCAR-5 ovarian
NCI-H522 lung = test system: NCI-H522 lung
NCI-H460 lung = test system: NCI-H460 lung
NCI-H23 lung = test system: NCI-H23 lung
LOX IMVI melanoma = test system: LOX IMVI melanoma
MOLT-4 leukemia = test system: MOLT-4 leukemia
IGROV1 ovarian = test system: IGROV1 ovarian
HOP-92 NSCLC = test system: HOP-92 NSCLC
DU-145 prostate = test system: DU-145 prostate
SF-268 CNS = test system: SF-268 CNS
SF-295 CNS = test system: SF-295 CNS
HCT-15 colon = test system: HCT-15 colon
A498 renal = test system: A498 renal
OVCAR-8 ovarian = test system: OVCAR-8 ovarian
RXF 393 renal = test system: RXF 393 renal
MALME-3M melanoma = test system: MALME-3M melanoma
PC-3 prostate = test system: PC-3 prostate
EKVX NSCLC = test system: EKVX NSCLC
NCI/ADR-RES ovarian = test system: NCI/ADR-RES ovarian
SK-OV-3 ovarian = test system: SK-OV-3 ovarian
MDA-MB-231 breast = test system: MDA-MB-231 breast
OVCAR-4 ovarian = test system: OVCAR-4 ovarian
CCRF-CEM leukemia = test system: CCRF-CEM leukemia
HCT-116 colon = test system: HCT-116 colon
SW-620 colon = test system: SW-620 colon
UACC-62 melanoma = test system: UACC-62 melanoma
HCC-2998 colon = test system: HCC-2998 colon
A549 NSCLC = test system: A549 NSCLC
NCI-H226 lung = test system: NCI-H226 lung
CAKI-1 renal = test system: CAKI-1 renal
SF-539 CNS = test system: SF-539 CNS
UO-31 renal = test system: UO-31 renal
HT29 colon = test system: HT29 colon
HS 578T breast = test system: HS 578T breast
COLO 205 colon = test system: COLO 205 colon
MCF7 breast = test system: MCF7 breast
HOP-62 NSCLC = test system: HOP-62 NSCLC
UACC-257 melanoma = test system: UACC-257 melanoma

COc1ccc([C@H]2[C@H](O)C(=O)N2c2cc(OC)c(OC)c(OC)c2)cc1O
GI50 (SK-MEL-5 melanoma): < 15.5 nM
TGI (SK-MEL-5 melanoma): 59.4 nM
GI50 (U251 CNS): 21.7 nM
TGI (U251 CNS): > 100000 nM
GI50 (SR leukemia): < 12.4 nM
TGI (SR leukemia): > 100000 nM
GI50 (SNB-19 CNS): 48.5 nM
TGI (SNB-19 CNS): > 100000 nM
GI50 (TK-10 renal): > 100000 nM
TGI (TK-10 renal): > 100000 nM
GI50 (T-47D breast): > 100000 nM
TGI (T-47D breast): > 100000 nM
GI50 (K-562 leukemia): < 15.8 nM
TGI (K-562 leukemia): > 100000 nM
GI50 (SK-MEL-2 melanoma): 40 nM
TGI (SK-MEL-2 melanoma): > 100000 nM
GI50 (M14 melanoma): < 16.3 nM
TGI (M14 melanoma): > 100000 nM
GI50 (SK-MEL-28 melanoma): 55.1 nM
TGI (SK-MEL-28 melanoma): > 100000 nM
GI50 (BT-549 breast): < 15.1 nM
TGI (BT-549 breast): 211 nM
GI50 (OVCAR-3 ovarian): < 18 nM
GI50 (KM12 colon): < 15.3 nM
TGI (KM12 colon): > 100000 nM
GI50 (ACHN renal): < 18.1 nM
TGI (ACHN renal): > 100000 nM
GI50 (786-0 renal): < 20.8 nM
TGI (786-0 renal): > 100000 nM
GI50 (HL-60(TB) leukemia): < 13.6 nM
GI50 (SN12C renal): < 16.9 nM
TGI (SN12C renal): > 100000 nM
GI50 (SNB-75 CNS): 28.2 nM
TGI (SNB-75 CNS): > 100000 nM
GI50 (RPMI-8226 leukemia): < 21.4 nM
TGI (RPMI-8226 leukemia): > 100000 nM
GI50 (OVCAR-5 ovarian): 37.7 nM
TGI (OVCAR-5 ovarian): > 100000 nM
GI50 (NCI-H522 lung): < 10 nM
TGI (NCI-H522 lung): < 14 nM
GI50 (NCI-H460 lung): < 18.3 nM
TGI (NCI-H460 lung): > 100000 nM
GI50 (NCI-H23 lung): 37.9 nM
TGI (NCI-H23 lung): > 100000 nM
GI50 (LOX IMVI melanoma): < 10 nM
TGI (LOX IMVI melanoma): > 100000 nM
GI50 (MOLT-4 leukemia): < 19.2 nM
TGI (MOLT-4 leukemia): > 100000 nM
GI50 (IGROV1 ovarian): < 20.6 nM
TGI (IGROV1 ovarian): > 100000 nM
GI50 (HOP-92 NSCLC): 43.8 nM
TGI (HOP-92 NSCLC): > 100000 nM
GI50 (DU-145 prostate): < 19.6 nM
TGI (DU-145 prostate): > 100000 nM
GI50 (SF-268 CNS): 30.6 nM
TGI (SF-268 CNS): > 100000 nM
GI50 (SF-295 CNS): 33.7 nM
TGI (SF-295 CNS): > 100000 nM
GI50 (HCT-15 colon): 22.7 nM
TGI (HCT-15 colon): > 100000 nM
GI50 (A498 renal): > 100000 nM
TGI (A498 renal): > 100000 nM
GI50 (OVCAR-8 ovarian): < 16.3 nM
GI50 (RXF 393 renal): 60.2 nM
TGI (RXF 393 renal): > 100000 nM
GI50 (MALME-3M melanoma): < 28.4 nM
TGI (MALME-3M melanoma): > 100000 nM
GI50 (PC-3 prostate): < 19 nM
TGI (PC-3 prostate): > 100000 nM
TGI (EKVX NSCLC): > 100000 nM
GI50 (NCI/ADR-RES ovarian): 33.3 nM
TGI (NCI/ADR-RES ovarian): > 100000 nM
GI50 (SK-OV-3 ovarian): 33.2 nM
TGI (SK-OV-3 ovarian): > 100000 nM
GI50 (MDA-MB-231 breast): < 17.8 nM
TGI (MDA-MB-231 breast): > 100000 nM
GI50 (OVCAR-4 ovarian): 4780 nM
TGI (OVCAR-4 ovarian): > 100000 nM
GI50 (CCRF-CEM leukemia): < 16.7 nM
TGI (CCRF-CEM leukemia): > 100000 nM
GI50 (HCT-116 colon): < 10 nM
TGI (HCT-116 colon): > 100000 nM
GI50 (SW-620 colon): < 18.2 nM
TGI (SW-620 colon): > 100000 nM
GI50 (UACC-62 melanoma): < 23.2 nM
TGI (UACC-62 melanoma): > 100000 nM
GI50 (HCC-2998 colon): 39.1 nM
TGI (HCC-2998 colon): > 100000 nM
GI50 (A549 NSCLC): 32.1 nM
TGI (A549 NSCLC): > 100000 nM
GI50 (NCI-H226 lung): < 10 nM
TGI (NCI-H226 lung): 2270 nM
GI50 (CAKI-1 renal): < 15.3 nM
TGI (CAKI-1 renal): > 100000 nM
GI50 (SF-539 CNS): < 10 nM
TGI (SF-539 CNS): 43.6 nM
GI50 (UO-31 renal): 50.3 nM
TGI (UO-31 renal): > 100000 nM
GI50 (HT29 colon): 202 nM
TGI (HT29 colon): 1760 nM
GI50 (HS 578T breast): 20 nM
TGI (HS 578T breast): > 100000 nM
GI50 (COLO 205 colon): 238 nM
TGI (COLO 205 colon): 1210 nM
GI50 (MCF7 breast): < 10 nM
TGI (MCF7 breast): > 100000 nM
GI50 (HOP-62 NSCLC): < 22.4 nM
TGI (HOP-62 NSCLC): > 100000 nM
TGI (UACC-257 melanoma): > 100000 nM

Source: PubChem BioAssay (NCI)
